Measured values published in article PMC5799093, “Proceedings of Réanimation 2018, the French Intensive Care Society International Congress” (Annals of Intensive Care, 2018).
Where two headings read alike, the source gives them in different places.

What was measured:
glucocorticoid receptors = glucocorticoid receptors (Homo sapiens, UniProt P04150)
[1] = Piperacillin population pharmacokinetics in critically ill children; type: in vivo; details: median (range), one compartment model, n = 50 children
Description: Pharmacokinetics were described using the non-linear mixed effect modelling software MONOLIX.

[2] = Residual serum concentrations of piperacillin and amoxicillin and neurological disorders (HPLC MS); type: in vivo, critically ill patients
Description: Patients and methods: This study was carried out retrospectively during the period 01.01.2015 to 08.02.2017, in patients hospitalized in the medical ICU-CHU Rouen with PTM.

[3] = test system: Stenotrophomonas maltophilia VAP; test: Risk factors for Stenotrophomonas maltophilia VAP, matched analysis; type: in vivo, patients; details: exposure during the week before VAP; 93 cases, 380 controls
Description: Patients and methods: We conducted a retrospective analysis of prospectively collected data in a multicenter database in France. VAP was determined as microbiologically documented pneumonia occurring after at least two days of mechanical ventilation. All patients admitted from 2000 to 2015 presenting at least one episode of VAP were included. SM-VAP were compared with VAP due to other micro-organisms (VAP-other). To assess risk factors and day-30 (D30) mortality, SM-VAP were matched (1 − n) with VAP-other based on center, time from ICU admission to VAP occurrence, and SAPS II score.

Enterococcus faecalis = test: Resistance in nosocomial urinary tract infection: Enterococcus faecalis (P-219); details: January 2010 - June 2014
[4] = test system: acutely poisoned ventilated patients; details: human, in vivo
Pseudomonas = details: January 2010 - June 2014
Acinetobacter baumannii = type: cell-based; details: blood culture isolates 2012–2016
Description: (§1) Patients and methods: From January 2012 to December 2016, a total of 2,182 non repetitive strains were isolated from blood cultures. Incubation of blood culture vials and the detection of bacterial growth were performed by the BACTEC system. All Isolated organisms were identified on the basis of standard microbiological techniques. Antibiotic susceptibility testing was carried out by the agar disk diffusion method, and susceptibility results were interpreted using clinical breakpoints according to CA-SFM 2013 and 2015 guidelines. Data were analyzed using the SIR-system. Minimum inhibitory concentrations of colistin, imipenem and vancomycin were determined using the Etest® method (bioMérieux).

[5] = Beta-lactam plasma concentrations in children with severe sepsis or septic shock (HPLC); details: current standard dosing
tramadol-overdosed rats = test: Antidotes for tramadol overdose: seizures, plethysmography, sedation, EEG; details: for tramadol-induced respiratory depression / ventilation: whole-body plethysmography
[6] = test system: carbapenemase-producing Enterobacteriaceae; test: Antibiotic susceptibility of Enterobacteriaceae with decreased susceptibility to carbapenems; type: cell-based
Escherichia-coli = test: Resistance in nosocomial urinary tract infection: Escherichia-coli (P-219); details: January 2010 - June 2014
Staphylococcus aureus [7] = type: cell-based; details: blood culture isolates 2012–2016
Description: as §1

[8] = test system: cardiogenic shock patients; test: OPTIMA CC double-blind randomized trial, epinephrine vs norepinephrine in cardiogenic shock after myocardial infarction; type: in vivo
Excerpt: Patients and methods: Multicenter, double-blind, randomized trial in 8 french ICU. Cardiogenic shock patients due to myocardial infarction treated by PCI were randomized to receive epinephrine or norepinephrine to maintain MAP at 70 mmHg. Dobutamine was introduced at the physician discretion according to a combination of parameters—echocardiographic parameters, cardiac index, lactate clearance, SVO2 and Swan-Ganz derived parameters.

[9] = Norepinephrine in pediatric septic shock, mortality (P-169); type: in vivo, human (children)
[10] = test system: E.coli lipopolysaccharide-challenged rats; test: Sodium lactate vs 0.9% NaCl in rat endotoxin shock: fluid balance and capillary leak; type: in vivo
Description: Patients and methods: The sixteen sedated, mechanically ventilated rats were challenged with intravenous infusion of E.coli lipopolysaccharide (10 mg/kg). Two groups of eight animals were randomised to receive a continous perfusion (5 mL/kg/h) of sodium lactate 11.2% (treatment group) or 0.9% NaCl (control group). In order to inject the same caloric load in the two groups, a 4.35 mL/kg/h of either water of 10% dextrose solution were perfused. Mean arterial pressure, heart rate, urine ouput were measured over a 210 min period. An echocardiography was then performed and Evans Blue (1%, 30 mg/kg) was intravenously injected 30 min before sacrifice. Organs were withdrawn and organs wet dry ratio and Evans blue dye extravasation were measured.

[11] = Hemodynamic and metabolic effects of molar sodium lactate infusion in critically ill patients (P-135); type: in vivo, human
Description: Patients and methods: This was a retrospective study performed in a large University Hospital. All patients receiving the molecule were included in the analysis. Indication for sodium lactate, dose, and modality of administration were collected. We also collected clinical and biological variables before sodium lactate infusion, after 6 h (H6), and after 24 h (H24). An analysis of the evolution of these variables at H6 and H24 was performed.

Acinetobacter Baumanii = test: Resistance of nosocomial infection isolates: Acinetobacter Baumanii (P-222); type: cell-based; details: n = 39 isolates, 2016
Excerpt: Patients and methods: This was a retrospective study conducted within a 22-bed medical ICU of a Tunisian teaching hospital (301 beds) carried from January 1st to December 31, 2016. We recorded demographic patients’ characteristics which ICU’s stay was complicated with at least one NI. Then we described pathogens and microbiological specificities of NI.

Staphylococcus aureus [12] = test: Resistance in nosocomial urinary tract infection: Staphylococcus aureus (P-219); details: January 2010 - June 2014
[13] = not given; remark: listed apart in the source
[14] = test system: patients after out-of-hospital cardiac arrest
[15] = test system: diaphragm contraction and workload; test: Diaphragmatic electromyography after diazepam / buprenorphine; type: in vivo, Sprague–Dawley rat; details: 30 mg kg BUP intraperitoneally, 20 mg kg DZP subcutaneously
Description: Patients and methods: 11C-BUP was administered intravenously, 30 mg kg unlabeled BUP intraperitoneally and 20 mg kg DZP subcutaneously.

[16] = test system: Farnesoid X receptor (FXR); test: LPS sepsis in CKD mice treated with sevelamer (P-138); type: in vivo, mice (C57BL6 J)
Description: Patients and methods: Sepsis was provoked by the injection of 0.5 mg kg of LPS 6 weeks after the creation of CKD. The CKD was created by unilateral nephrectomy associated with contralateral thermocauterisation. The mice (C57BL6 J) were randomly assigned to one of the following groups—sham placebo, CKD placebo, sham LPS or CKD LPS. A fifth group of CKD LPS mice received a treatment with sevelamer (a bile acid sequestrant) during 6 weeks. Survival of the animals, serum biochemistry and molecular biology in the kidney were performed after sacrifice.

Sequence of glucocorticoid receptors (P04150 whole entry): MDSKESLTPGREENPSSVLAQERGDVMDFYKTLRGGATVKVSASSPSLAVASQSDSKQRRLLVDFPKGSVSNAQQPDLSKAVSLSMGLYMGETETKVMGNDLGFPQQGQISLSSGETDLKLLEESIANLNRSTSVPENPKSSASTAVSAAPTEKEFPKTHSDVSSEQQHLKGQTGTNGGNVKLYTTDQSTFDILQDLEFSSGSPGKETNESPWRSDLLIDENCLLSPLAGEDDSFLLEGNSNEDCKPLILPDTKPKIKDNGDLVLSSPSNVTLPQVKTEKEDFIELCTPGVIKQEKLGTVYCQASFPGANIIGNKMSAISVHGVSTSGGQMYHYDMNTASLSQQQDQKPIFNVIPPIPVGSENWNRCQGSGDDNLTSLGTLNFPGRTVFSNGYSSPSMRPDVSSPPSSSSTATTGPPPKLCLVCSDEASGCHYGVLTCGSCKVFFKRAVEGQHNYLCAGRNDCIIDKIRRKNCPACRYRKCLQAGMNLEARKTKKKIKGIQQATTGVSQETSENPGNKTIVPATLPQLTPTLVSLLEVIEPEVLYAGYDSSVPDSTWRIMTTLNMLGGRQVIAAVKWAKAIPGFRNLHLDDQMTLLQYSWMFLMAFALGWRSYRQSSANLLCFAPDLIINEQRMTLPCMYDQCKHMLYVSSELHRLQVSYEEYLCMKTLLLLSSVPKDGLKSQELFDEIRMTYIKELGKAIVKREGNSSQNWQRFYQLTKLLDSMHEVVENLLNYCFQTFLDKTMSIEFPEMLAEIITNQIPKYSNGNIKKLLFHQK

## C[C@H]1C[C@H]2[C@@H]3CCC4=CC(=O)C=C[C@]4(C)[C@@]3(F)[C@@H](O)C[C@]2(C)[C@@]1(O)C(=O)CO [Betamethasone]
Glucocorticoid receptors; non-septic critically ill
  corticoresistance (mean blanching score < 2): 56%
Glucocorticoid receptors; septic shock, 10 µl cream on 3 cm^2, read at 24 h
  corticoresistance (mean blanching score < 2): 78%

## CCN1CCN(C(=O)N[C@@H](C(=O)N[C@@H]2C(=O)N3[C@@H]2SC(C)(C)[C@@H]3C(=O)O)c2ccccc2)C(=O)C1=O [Piperacillin]
[1]; MONOLIX, intermittent infusions
  clearance: 3 (0.71–10) L h^−1
[1]
  volume of distribution: 3.8 (0.72–25.8) L
[2]; 80% specificity and sensitivity
  residual concentration associated with occurrence of neurological disorders: greater than 40 mg L^−1
[2]; HPLC MS
  residual serum concentration, patients with neurological disorders or wakefulness delays: 98.2 ± 16.8 mg L^−1
  residual serum concentration, patients without neurological disorders: 21.6 ± 4.0 mg L^−1

## C[C@]1(Cn2ccnn2)[C@H](C(=O)O)N2C(=O)C[C@H]2S1(=O)=O [Tazobactam]
[3]
  OR for SM-VAP, univariate analysis: 1.75 [1.04; 2.94]

## CC1(C)S[C@@H]2[C@H](NC(=O)[C@H](N)c3ccccc3)C(=O)N2[C@H]1C(=O)O [ampicillin]
Enterococcus faecalis
  resistance: no resistance

## CN1[C@@H]2CC[C@H]1C[C@@H](OC(=O)C(CO)c1ccccc1)C2 (some centres unmarked) [atropine]
[4]
  OR, independent risk factor for delirium: 2.333

## CC(C)(O/N=C(\C(=O)N[C@@H]1C(=O)N2C(C(=O)[O-])=C(C[n+]3ccccc3)CS[C@H]12)c1csc(N)n1)C(=O)O [ceftazidime]
Pseudomonas
  resistant: 61%
Acinetobacter baumannii
  resistance rate: Eighty per cent
Pseudomonas aeruginosa
  resistance rate: 39%
[5]
  patients with insufficient plasma concentration: 0%
Klebsiella pneumoniae
  resistance rate: 70%

## O=C(O)c1cn(C2CC2)c2cc(N3CCNCC3)c(F)cc2c1=O [ciprofloxacin]
[3]
  OR for SM-VAP, univariate analysis: 1.77 [0.92; 3.39]

## CN1C(=O)CN=C(c2ccccc2)c2cc(Cl)ccc21 [diazepam]
tramadol-overdosed rats; rat, in vivo
  sedation depth: significantly deepened rat sedation
tramadol-overdosed rats
  tramadol-induced respiratory depression / ventilation: without improving ventilation

## C[C@@H](O)[C@H]1C(=O)N2C(C(=O)O)=C(S[C@@H]3CN[C@H](C(=O)Nc4cccc(C(=O)O)c4)C3)[C@H](C)[C@H]12 [ertapenem]
[6]; 39 selected bacteria
  strains with MIC > 1 mg l: 95%
Escherichia-coli
  resistance: without resistance

## CC(=O)NC[C@H]1CN(c2ccc(N3CCOCC3)c(F)c2)C(=O)O1 [linezolid]
Staphylococcus aureus [7]
  resistance rate: 1%

## C=CCN1CC[C@]23c4c5ccc(O)c4O[C@H]2C(=O)CC[C@@]3(O)[C@H]1C5 [naloxone]
tramadol-overdosed rats
  tramadol-induced respiratory depression / ventilation: reversed tramadol-induced respiratory depression

## NC[C@H](O)c1ccc(O)c(O)c1 [norepinephrine]
[8]; H2 to H24
  arterial pH and lactate: arterial pH increased and lactate level decreased
[8]; in vivo
  ECMO use: 3%
  cardiac double product (surrogate of myocardial oxygen consumption): did not change
  heart rate evolution: did not change
  incidence of arrhythmia: 33%
  mortality: 37%
[8]; titrated to MAP 70 mmHg, epinephrine n = 27, norepinephrine n = 30
  incidence of refractory shock: 7%
[9]; 95% confidence interval 1.1–2.0, p = 0.02
  OR of maximal dose for mortality: 1.4
[9]; 191 children with septic shock treated with norepinephrine
  global mortality rate: 28.8%
[9]; in vivo
  mortality rate in preterm neonates: 35.3%
[9]; when dose reached 0.75 µg kg per minute
  mortality: 46.2%

## CC(O)C(=O)[O-].[Na+] (centres unmarked) [sodium lactate]
[10]; after sodium lactate infusion
  hemodynamics parameters: not significantly enhanced
[10]; sodium lactate 11.2% 5 mL/kg/h vs 0.9% NaCl, LPS 10 mg/kg, 210 min
  fluid balance, organs wet dry ratio and Evans blue dye extravasation: not significantly improved
[11]; 6 h period following initiation, p = 0.02
  diuresis: increase
[11]; at H6 (p = 0.009) and H24 (p = 0.003), 250 ml infusion, 104 patients
  mean arterial pressure: significant increase
[11]; at H6 and H24, all p < 0.0001
  pH, bicarbonate, base excess, and sodium: increase
[11]; at H24
  patients with plasma sodium >= 150 mmol l and pH >= 7.50: 5%
[11]; at H24, p = 0.002
  catecholamine dose: decrease
[11]; at H24, p = 0.05
  heart rate: decrease

## CN(C)c1cc(NC(=O)CNC(C)(C)C)c(O)c2c1C[C@H]1C[C@H]3[C@H](N(C)C)C(O)=C(C(N)=O)C(=O)[C@@]3(O)C(O)=C1C2=O [tigecycline]
Staphylococcus aureus [7]
  resistance rate: 15%
[6]; colistin excepting with Proteus
  susceptibility: 63%

## CN(C)c1cc(NC(=O)CNC(C)(C)C)c(O)c2c1C[C@H]1C[C@H]3[C@H](N(C)C)C(=O)C(C(N)=O)=C(O)[C@@]3(O)C(=O)C1=C2O [tygecycline]
Acinetobacter Baumanii
  resistance: 100%

## CN[C@H](CC(C)C)C(=O)N[C@H]1C(=O)N[C@@H](CC(N)=O)C(=O)N[C@H]2C(=O)N[C@H]3C(=O)N[C@H](C(=O)N[C@H](C(=O)O)c4cc(O)cc(O)c4-c4cc3ccc4O)[C@H](O)c3ccc(c(Cl)c3)Oc3cc2cc(c3O[C@@H]2O[C@H](CO)[C@@H](O)[C@H](O)[C@H]2O[C@H]2C[C@](C)(N)[C@H](O)[C@H](C)O2)Oc2ccc(cc2Cl)[C@H]1O [vancomycin]
Enterococcus faecalis
  resistance: no resistance
Staphylococcus aureus [12]
  resistance: without any resistance

## Amoxicillin clavulanic acid [AMC]
community-acquired peritonitis
  efficiency: 77%
In vivo
  impact when AMC was inadequate: no impact on morbidity and mortality

## Cyclosporine A [CsA]
[13]; D0 and D1, p = ns
  IL-1, IL-6, IL-8 and TNFα levels versus Control group: did not significantly differ
[13]; p < 0.05
  level of IL 10 at admission versus Control group: significantly lower

## amoxicillin-clavulanic acid
[14]; IC 95% [0.315 + 0.946], p = 0.031
  HR for early VAP vs placebo: 0.546
[14]; IV 1 g 200 mg three times a day for 2 days, n = 99
  incidence of early VAP (< 7 days): 19.2%
[14]; n = 99
  Day 28 mortality: 41.4%
  late VAP (> 7 days), number of patients: 4

## buprenorphine
[15]
  diaphragm contraction (first 60 min AUC): significantly increased
  diaphragm workload (first 60 min AUC): significantly increased

## sevelamer
[16]; sevelamer 6 weeks before LPS
  RNA expression of FXR in the kidney versus CKD LPS group: increased the RNA expression of FXR
  plasmatic concentration of Il1b, TNFa versus CKD LPS group: lower plasmatic concentration
[16]; sevelamer 6 weeks before LPS 0.5 mg kg
  survival of CKD LPS animals: improved the survival
